Data: ChEMBL document CHEMBL5241056, “Engagement of phytoestrogens in breast cancer suppression: Structural classification and mechanistic approach” (Eur J Med Chem, 2021)
Values after ≈ are worked out from the molar mass of the structure shown.

Columns and labels:
[1] = target: T1, Estrogen receptor (Bos taurus, UniProt P49884); assay: Displacement of [3H]-17beta-estradiol from bovine uterine estrogen receptor by competitive binding assay
T1 sequence (P49884 whole entry): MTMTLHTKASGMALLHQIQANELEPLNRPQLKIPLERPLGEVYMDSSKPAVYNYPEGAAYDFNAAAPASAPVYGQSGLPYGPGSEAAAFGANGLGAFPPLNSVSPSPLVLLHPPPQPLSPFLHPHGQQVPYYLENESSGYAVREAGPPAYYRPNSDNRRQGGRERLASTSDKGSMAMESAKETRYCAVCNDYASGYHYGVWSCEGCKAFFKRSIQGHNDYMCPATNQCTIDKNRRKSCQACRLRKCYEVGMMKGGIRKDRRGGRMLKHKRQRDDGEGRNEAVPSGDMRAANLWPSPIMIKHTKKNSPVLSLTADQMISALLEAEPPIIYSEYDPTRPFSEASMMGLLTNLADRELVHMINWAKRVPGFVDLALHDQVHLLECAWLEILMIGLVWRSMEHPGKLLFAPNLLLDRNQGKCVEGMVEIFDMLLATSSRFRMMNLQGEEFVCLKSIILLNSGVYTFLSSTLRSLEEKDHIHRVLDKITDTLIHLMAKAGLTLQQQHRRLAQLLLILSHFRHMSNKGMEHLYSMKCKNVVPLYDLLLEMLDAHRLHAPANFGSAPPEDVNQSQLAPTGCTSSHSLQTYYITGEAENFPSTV

[2] = test system: MCF7; assay: Antiproliferative activity against human MCF7 cells assessed as inhibition of cell growth incubated for 6 days by SRB assay; assay type: functional, cell-based; conditions: MCF7, 144 h
[3] = test system: MDA-MB-231; assay: Antiproliferative activity against human MDA-MB-231 cells assessed as inhibition of cell growth incubated for 24 to 96 hrs by MTT assay; assay type: functional, cell-based
[4] = Cytotoxicity against human MCF-10A cells assessed as inhibition of cell growth incubated for 24 to 96 hrs by MTT assay; assay type: toxicity, cell-based
[5] = test system: MDA-MB-468; assay: Antiproliferative activity against human MDA-MB-468 cells assessed as inhibition of cell growth by MTT assay; assay type: functional, cell-based
[6] = Cytotoxicity against human MCF-10A cells assessed as inhibition of cell growth by MTT assay; assay type: toxicity, cell-based
[7] = target: Sulfotransferase 1A1 (Rattus norvegicus, UniProt P17988); assay: Inhibition of rat liver SULT1A1-mediated oestradiol sulfonation incubated for 20 mins
Sulfotransferase 1A1, sequence (P17988 whole entry): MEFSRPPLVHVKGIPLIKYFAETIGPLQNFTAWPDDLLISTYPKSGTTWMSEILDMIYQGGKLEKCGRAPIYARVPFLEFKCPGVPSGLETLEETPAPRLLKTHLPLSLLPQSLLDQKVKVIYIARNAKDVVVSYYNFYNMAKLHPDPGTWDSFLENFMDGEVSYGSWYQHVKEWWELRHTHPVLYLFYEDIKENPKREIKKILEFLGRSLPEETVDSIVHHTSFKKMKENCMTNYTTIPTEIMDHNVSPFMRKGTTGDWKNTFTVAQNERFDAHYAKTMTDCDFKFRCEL

[8] = target: T2, Sulfotransferase 2A1 (Rattus norvegicus, UniProt P15709); assay: Inhibition of rat SULT2A1-mediated dehydroepiandrosterone sulfonation incubated for 20 mins
T2 sequence (P15709 whole entry): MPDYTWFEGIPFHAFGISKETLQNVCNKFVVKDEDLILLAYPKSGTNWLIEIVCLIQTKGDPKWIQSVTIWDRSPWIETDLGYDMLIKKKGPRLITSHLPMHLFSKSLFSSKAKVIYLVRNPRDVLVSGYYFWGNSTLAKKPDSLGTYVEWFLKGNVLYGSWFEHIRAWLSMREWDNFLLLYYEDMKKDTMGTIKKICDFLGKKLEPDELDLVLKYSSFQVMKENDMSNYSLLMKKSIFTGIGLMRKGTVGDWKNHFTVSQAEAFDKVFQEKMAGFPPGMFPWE

[9] = test system: MCF7; assay: Antiproliferative activity against human MCF7 cells assessed as inhibition of cell growth incubated for 2 days by SRB assay; assay type: functional, cell-based; conditions: MCF7, 48 h
[10] = test system: MCF7; assay: Antiproliferative activity against human MCF7 cells assessed as inhibition of cell growth incubated for 4 days by SRB assay; assay type: functional, cell-based; conditions: MCF7, 96 h
[11] = target: T3, Steryl-sulfatase (Rattus norvegicus, UniProt P15589); assay: Inhibition of estrone sulfatase in homogeneous rat mammary tumors; assay type: tissue-based, Tumor
T3 sequence (P15589 whole entry): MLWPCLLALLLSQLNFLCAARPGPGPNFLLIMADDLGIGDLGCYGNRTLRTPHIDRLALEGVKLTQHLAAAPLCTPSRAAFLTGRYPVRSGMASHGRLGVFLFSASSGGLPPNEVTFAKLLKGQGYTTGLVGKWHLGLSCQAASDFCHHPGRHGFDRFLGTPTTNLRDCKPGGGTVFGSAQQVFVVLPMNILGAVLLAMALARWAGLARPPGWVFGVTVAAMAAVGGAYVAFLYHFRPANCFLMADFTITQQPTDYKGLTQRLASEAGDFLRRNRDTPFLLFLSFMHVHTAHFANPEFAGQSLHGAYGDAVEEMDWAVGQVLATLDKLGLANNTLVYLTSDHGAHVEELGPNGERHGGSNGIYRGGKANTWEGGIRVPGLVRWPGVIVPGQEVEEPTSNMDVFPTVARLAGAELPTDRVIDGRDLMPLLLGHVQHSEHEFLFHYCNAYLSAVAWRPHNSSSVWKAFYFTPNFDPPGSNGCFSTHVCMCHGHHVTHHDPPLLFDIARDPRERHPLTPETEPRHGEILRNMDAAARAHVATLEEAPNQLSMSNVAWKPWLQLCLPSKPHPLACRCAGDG

[12] = target: T4, Steryl-sulfatase (Homo sapiens, UniProt P08842); assay: Inhibition of estrone sulfatase in human MCF7 cell microsomes; design: species or system Microsome
T4 sequence (P08842 whole entry): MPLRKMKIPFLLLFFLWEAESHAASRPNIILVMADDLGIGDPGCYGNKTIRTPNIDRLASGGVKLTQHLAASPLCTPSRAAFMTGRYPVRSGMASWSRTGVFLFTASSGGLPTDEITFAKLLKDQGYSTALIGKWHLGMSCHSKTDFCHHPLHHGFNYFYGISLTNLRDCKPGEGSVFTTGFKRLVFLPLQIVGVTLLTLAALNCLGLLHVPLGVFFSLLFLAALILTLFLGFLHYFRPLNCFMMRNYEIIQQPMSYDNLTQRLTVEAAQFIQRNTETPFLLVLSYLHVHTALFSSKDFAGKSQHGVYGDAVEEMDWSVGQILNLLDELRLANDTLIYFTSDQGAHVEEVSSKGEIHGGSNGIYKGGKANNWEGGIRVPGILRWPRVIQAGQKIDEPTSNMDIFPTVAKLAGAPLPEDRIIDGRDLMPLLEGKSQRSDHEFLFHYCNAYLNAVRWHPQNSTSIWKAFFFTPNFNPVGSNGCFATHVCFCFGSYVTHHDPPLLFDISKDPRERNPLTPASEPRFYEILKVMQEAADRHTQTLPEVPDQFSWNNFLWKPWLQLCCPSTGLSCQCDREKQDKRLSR

[13] = test system: MCF7; assay: Inhibition of DNA synthesis in human MCF7 cells incubated for 4 days by BrdU incorporation assay; assay type: functional, cell-based; conditions: MCF7, 96 h
[14] = test system: MCF7; assay: Antiproliferative activity against human MCF7 cells assessed as inhibition of cell growth incubated for 2 days by WST-1 assay; assay type: functional, cell-based; conditions: MCF7, 48 h
[15] = test system: MCF7; assay: Antiproliferative activity against human MCF7 cells assessed as inhibition of cell growth incubated for 0 to 5 days by MTT assay; assay type: functional, cell-based
[16] = Oral bioavailability in CD rat at 50 mg/kg administered daily for 14 days; assay type: ADME, organism-based; conditions: in vivo, time 14 day
[17] = test system: MCF7; assay: Antiproliferative activity against human MCF7 cells assessed as inhibition of cell growth incubated for 3 days by beta scintillation counting based [3H]-thymidine incorporation assay; assay type: functional
[18] = Oral bioavailability in CD rat at 168 mg/kg administered daily for 14 days; assay type: ADME, organism-based; conditions: in vivo, time 14 day

C=C[C@H](/C=C\c1ccc(O)cc1)c1ccc(O)cc1 [NYASOL]
IC50 [1]: 0.4 µM

Oc1ccc(C2COc3cc(O)ccc3C2)cc1 (centres undefined)
IC50 [2]: 1 µM

O=C(/C=C/c1ccc(O)cc1)c1ccc(O)cc1O [ISOLIQUIRITIGENIN]
IC50 [3]: 25 µM
IC50 [4]: 25 µM

COc1ccc(-c2cc(=O)c3c(OC)c(OC)c(OC)cc3o2)cc1OC [SINENSETIN]
IC50 [5]: 0.2 µM
IC50 [6]: 65 µM

C=C[C@@H](/C=C\c1ccc(O)cc1)c1ccc(O)cc1
IC50 [1]: 0.06 µM

O=c1c(-c2ccc(O)cc2)coc2cc(O)cc(O)c12 [GENISTEIN]
IC50 [7]: 0.29 µM
IC50 [8]: 34 µM

O=c1c(-c2ccc(O)cc2)coc2cc(O)ccc12 [DAIDZEIN]
IC50 [7]: 0.29 µM
IC50 [8]: 34 µM

O=c1cc(-c2ccccc2)oc2ccccc12 [FLAVONE]
IC50 [2]: 0.3 µM

COc1cc(O)c(CC=C(C)C)c2c1C(=O)CC(c1ccc(O)cc1)O2 (centres undefined) [ISOXANTHOHUMOL]
IC50 [9]: 15.3 µM
IC50 [10]: 4.69 µM

C[C@H]1[C@H](C)CC[C@]2(C(=O)O)CC[C@]3(C)C(=CC[C@@H]4[C@@]5(C)CC[C@H](O)C(C)(C)[C@@H]5CC[C@]43C)[C@H]12 [URSOLIC ACID]
IC50 [11]: 0.131 µM
IC50 [12]: 0.263 µM

COc1cc(O)c(CC=C(C)C)c(O)c1C(=O)/C=C/c1ccc(O)cc1 [XANTHOHUMOL]
IC50 [9]: 13.3 µM
IC50 [10]: 3.47 µM

COc1ccc(-c2coc3cc(O)cc(O)c3c2=O)cc1 [BIOCHANIN]
IC50 [13]: 40 µg/mL (≈ 141 µM)
IC50 [2]: 10 µM
IC50 [14]: 40 µg/mL (≈ 141 µM)

O=c1oc2cc(O)ccc2c2oc3cc(O)ccc3c12 [COUMESTROL]
IC50 [2]: 0.04 µM
IC50 [15]: 50 µM

Oc1ccc(/C=C/c2cc(O)cc(O)c2)cc1 [RESVERATROL]
bioavailability [16]: 20%

O=c1c(O)c(-c2ccc(O)cc2)oc2cc(O)cc(O)c12 [KAEMPFEROL]
IC50 [7]: 0.29 µM
IC50 [2]: 50 µM
IC50 [8]: 34 µM

O=c1cc(-c2ccccc2)oc2cc(O)c(O)c(O)c12 [BAICALEIN]
IC50 [17]: 5.3 µg/mL (≈ 19.6 µM)

C#C[C@]1(O)CC[C@H]2[C@@H]3CCc4cc(OC)ccc4[C@H]3CC[C@@]21C [MESTRANOL]
IC50 [2]: 0.04 µM

COc1cc2c(c(O)c1C(=O)/C=C/c1ccc(O)cc1)C=CC(C)(C)O2 [XANTHOHUMOL C]
IC50 [9]: 15.7 µM
IC50 [10]: 6.87 µM

O=C(O)[C@H]1O[C@@H](Oc2cc(O)c3c(=O)cc(-c4ccc(O)cc4)oc3c2)[C@H](O)[C@@H](O)[C@@H]1O
IC50 [5]: 13 µM
IC50 [6]: 42 µM

O=c1cc(-c2ccc(O)c(O)c2)oc2cc(O)cc(O)c12 [LUTEOLIN]
IC50 [2]: 5 µM

O=C1C[C@@H](c2ccc(O)cc2)Oc2cc(O)cc(O)c21 [NARINGENIN]
IC50 [2]: 0.3 µM

O=c1c(O)c(-c2ccc(O)c(O)c2)oc2cc(O)cc(O)c12 [QUERCETIN]
IC50 [7]: 0.29 µM
IC50 [2]: 5 µM
IC50 [8]: 34 µM

O=C(CCc1ccc(O)cc1)c1c(O)cc(O)cc1O [PHLORETIN]
IC50 [2]: 7 µM

COc1cc(O)c2c(=O)cc(-c3ccc(O)cc3)oc2c1 [GENKWANIN]
IC50 [5]: 1.6 µM
IC50 [6]: 75 µM

O=c1c(O)c(-c2ccccc2)oc2cc(O)cc(O)c12 [GALANGIN]
IC50 [17]: 4.2 µg/mL (≈ 15.5 µM)

COc1cc(/C=C/c2ccc(O)cc2)cc(OC)c1 [PTEROSTILBENE]
bioavailability [18]: 80%

O=c1cc(-c2ccc(O)cc2)oc2cc(O)cc(O)c12 [APIGENIN]
IC50 [2]: 1 µM
